Experimental data as given in paper PMC4926252 (Scientific Reports, 2016).
Where two headings read alike, the source gives them in different places.

Key:
CtpH-LBD [1] = molecular target: T1, CtpH-LBD (Pseudomonas aeruginosa, UniProt G3XDA3); test: biochemical; type: binding; conditions: for binding: titrated with 5 mM ligand
PstS = PstS (Pseudomonas aeruginosa, UniProt G3XDA8); test: biochemical; type: binding; conditions: for ΔH: 25 °C, unfolded/refolded PstS, 10 mM Tris/HCl pH 8.0
CtpH-LBD [2] = molecular target: T1, CtpH-LBD; conditions: CtpH-LBD (51 μM) saturated with 5 mM Pi
P. aeruginosa PAO1 [3] = tested on: P. aeruginosa PAO1
CtpH-LBD [4] = molecular target: T1, CtpH-LBD; conditions: sedimentation velocity and equilibrium, with and without Pi
CtpL-LBD = CtpL-LBD (Pseudomonas aeruginosa, UniProt Q9HUW6); conditions: ITC
Protocol: E. coli BL21 (DE3) containing the expression plasmids were cultured in LB medium supplemented with 50 μg ml^−1 kanamycin at 30 °C until an OD660 of 0.6, at which point 0.1 mM IPTG was added. […] Pellets were resuspended in buffer A (30 mM Tris, 300 mM NaCl, 10 mM imidazole, 5% (v/v) glycerol, pH 7.0) and broken by French press at 1000 psi. […] Protein was diluted to 10 μM and refolded by two consecutive dialyses into 10 mM Tris/HCl, pH 8.0. Aggregated protein corresponding to misfolded species was removed by filtration using 0.22 μm cut-off filters.
The mean enthalpies from the injection of ligands into buffer were subtracted from titration data prior to analysis with the “One binding site model” of ORIGIN following the algorithm described in[51].

P. aeruginosa PAO1 [5] = conditions: cited from earlier work
G3XDA3 [6] = test: AUC; sedimentation velocity of CtpH-LBD in the presence of 500 uM Pi; 45,000 rpm, 6 °C, polybuffer
G3XDA3 [7] = test: AUC; sedimentation equilibrium of CtpH-LBD in the presence of Pi; 11,800, 18,100 and 31,000 rpm, 6 °C, polybuffer
[8] = molecular target: T2, PstS (PA5369), periplasmic phosphate-binding protein, recombinant (P. aeruginosa, UniProt G3XDA8 25-323); test: AUC; sedimentation velocity, 45,000 rpm, 6 °C, polybuffer; CtpL-LBD and PstS individually and as a mixture; c(s) method; conditions: both partners purified
T2 construct: also called Pi-loaded PstS; source: E. coli BL21 (DE3), overexpressed, purified (HisTrap)
T2 sequence: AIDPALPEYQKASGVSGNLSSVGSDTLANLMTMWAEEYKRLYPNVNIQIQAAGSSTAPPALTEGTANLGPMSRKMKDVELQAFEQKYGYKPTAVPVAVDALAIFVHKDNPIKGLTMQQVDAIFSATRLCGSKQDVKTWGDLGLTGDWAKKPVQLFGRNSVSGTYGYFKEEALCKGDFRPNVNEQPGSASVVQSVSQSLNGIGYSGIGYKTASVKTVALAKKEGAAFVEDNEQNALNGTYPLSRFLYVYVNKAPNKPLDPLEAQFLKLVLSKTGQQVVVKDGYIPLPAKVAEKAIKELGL

[9] = molecular target: T2, PstS (PA5369), periplasmic …; test: ITC; 5 uM Pi-loaded PstS in the cell titrated with 80 uM CtpL-LBD; 25 °C; one binding site model; means of three experiments; conditions: both partners purified

**Q.** With `O=CC(O)COP(=O)(O)O` (racemic) [DL-glyceraldehyde 3-phosphate] as the molecule, how does the KD (CtpH-LBD [1]; pH 7) read?
**A.** The KD was “No binding”.

**Q.** Which KD (CtpH-LBD [1]; pH 7) does the source give for `O=C(O)[C@H](O)[C@@H](O)[C@H](O)[C@H](O)COP(=O)(O)O` [6-phosphogluconate] here?
**A.** Its KD is “No binding”.

**Q.** Which Kd (CtpH-LBD [1]) does the source give for `Nc1ncnc2c1ncn2[C@@H]1O[C@H](COP(=O)(O)OP(=O)(O)O)[C@@H](O)[C@H]1O` [ADP] here?
**A.** Its Kd is 103000 ± 21000 nM.

**Q.** And the ΔH (CtpH-LBD [1]; pH 7)?
**A.** The ΔH was -2.7 ± 1 kcal/mol.

**Q.** With `Nc1ncnc2c1ncn2[C@@H]1O[C@H](COP(=O)(O)O)[C@@H](O)[C@H]1O` [AMP] as the molecule, how does the KD (CtpH-LBD [1]; pH 7) read?
**A.** Its KD is “No binding”.

**Q.** For `Nc1ncnc2c1ncn2[C@@H]1O[C@H](COP(=O)(O)OP(=O)(O)OP(=O)(O)O)[C@@H](O)[C@H]1O` [ATP], which KD (CtpH-LBD [1]; pH 7) is on record?
**A.** Its KD is “Binding ^1”.

**Q.** What about the Kd (PstS) of the same molecule?
**A.** Its Kd is 300 ± 100 nM.

**Q.** And the ΔH (PstS; ITC)?
**A.** The ΔH was -2.9 ± 0.1 kcal/mol.

**Q.** For `O=C(CO)[C@@H](O)[C@H](O)[C@H](O)COP(=O)(O)O` [D-fructose 6-phosphate], which KD (CtpH-LBD [1]; pH 7) is on record?
**A.** The KD was “No binding”.

**Q.** With `O=C[C@H](O)[C@@H](O)[C@H](O)[C@H](O)COP(=O)(O)O` [D-glucose 6-phosphate] as the molecule, how does the KD (CtpH-LBD [1]; pH 7) read?
**A.** Its KD is “No binding”.

**Q.** For `O=P(O)(O)O` [Pi, K2HPO4], which ΔH of unfolding (CtpH-LBD [2]; without Pi 28.2 kcal/mol) is on record?
**A.** The ΔH of unfolding was 39.9 + /−1.5 kcal/mol.

**Q.** What about the Tm (CtpH-LBD [2]; without Pi 46.9 °C) of the same molecule?
**A.** The Tm was 56.6 + /−0.2 °C.

**Q.** And the chemotaxis (P. aeruginosa PAO1 [3]; ctpH mutant, 0.01 mM Pi)?
**A.** The chemotaxis was “no significant changes”.

**Q.** What about the chemotaxis (P. aeruginosa PAO1 [3]; ctpH mutant, 0.1 and 10 mM Pi) of the same molecule?
**A.** Its chemotaxis is “compromised chemotaxis”.

**Q.** What about the chemotaxis (P. aeruginosa PAO1 [3]; pstS deletion mutant, low Pi (0.01 and 0.1 mM)) of the same molecule?
**A.** The chemotaxis was “dramatically reduced chemotaxis”.

**Q.** What about the chemotaxis (P. aeruginosa PAO1 [3]; pstS mutant, high Pi (10 mM)) of the same molecule?
**A.** The chemotaxis was “did not greatly affect chemotaxis”.

**Q.** What about the chemotaxis (P. aeruginosa PAO1 [3]; pstS/ctpH double mutant) of the same molecule?
**A.** The chemotaxis was “only very marginal Pi chemotaxis”.

**Q.** And the “effect on oligomeric state of CtpH-LBD” value (CtpH-LBD [4])?
**A.** Its value is “causes CtpH-LBD dimerization”.

**Q.** What about the binding (CtpL-LBD; CtpL-LBD denatured, dialyzed and refolded) of the same molecule?
**A.** The binding was “did not show any Pi binding”.

**Q.** What about the KD (CtpL-LBD; conducted at different temperatures) of the same molecule?
**A.** The KD was “No binding”.

**Q.** And the Kd (PstS)?
**A.** The Kd was 7 ± 1 nM.

**Q.** And the ΔH (PstS; ITC)?
**A.** The ΔH was -5.1 ± 0.1 kcal/mol.

**Q.** What about the binding (PstS; ITC, PstS as purified from E. coli, before unfolding/refolding) of the same molecule?
**A.** The binding was “no binding”.

**Q.** What about the TΔS (PstS; ITC, refolded PstS) of the same molecule?
**A.** The TΔS was 6.0 ± 0.1 kcal/mol.

**Q.** And the n-value (PstS; ITC, refolded PstS)?
**A.** The n-value was 0.29 ± 0.02.

**Q.** With `O=[As](O)(O)O` [arsenate] as the molecule, how does the KD (CtpH-LBD [1]; ITC, 25 °C, polybuffer pH 7.0) read?
**A.** The KD was “No binding”.

**Q.** What about the binding (CtpH-LBD [1]; ITC) of the same molecule?
**A.** The binding was “did not bind”.

**Q.** What about the chemotaxis (P. aeruginosa PAO1 [5]; Pi starved cells) of the same molecule?
**A.** The chemotaxis was “attracted to arsenate”.

**Q.** What does the source list for `O=[As][O-].[Na+]` [arsenite]?
**A.** KD (CtpH-LBD [1]; ITC, 25 °C, polybuffer pH 7.0): No binding; binding (CtpH-LBD [1]; ITC): did not bind

**Q.** For `C=C(OP(=O)(O)O)C(=O)O` [phosphoenolpyruvate], which KD (CtpH-LBD [1]; pH 7) is on record?
**A.** The KD was “No binding”.

**Q.** For `O=P(O)(O)OP(=O)(O)O` [pyrophosphate], which chemotaxis (P. aeruginosa PAO1 [5]; P. aeruginosa) is on record?
**A.** Its chemotaxis is “chemotaxis towards millimolar concentrations of pyrophosphate”.

**Q.** And the Kd (PstS)?
**A.** The Kd was 2600 ± 300 nM.

**Q.** What about the ΔH (PstS; ITC) of the same molecule?
**A.** The ΔH was -8.3 ± 0.3 kcal/mol.

B1: ligand binding domain of the chemoreceptor CtpH (CtpH-LBD) (protein)
chain: GSLTGDVRAYRELLGGPVRAAQLIDEANLQFRGQVQEWKNVLLRGRQTEAQTKYWSQFEAQERAVQDILGRLGSVAEGELKDRVERLREEHRRLGTAYRQGRQRFLEAGADPIAGDQAVTGIDRATTAQMQTLRDELHQASDLHSSSISAEARRT
**Q.** Which results are given for B1?
**A.** N with Pi (G3XDA3 [6]): dimer (39,566 Da); N with Pi (minor species) (G3XDA3 [6]): tetramer (79,132 Da); percent of the sedimenting material in the dimer peak, with Pi (G3XDA3 [6]): 86% of the sedimentation material; N with Pi (G3XDA3 [7]): 2

B2: ligand binding domain of the chemoreceptor CtpL (CtpL-LBD) (domain or fragment, P. aeruginosa, UniProt Q9HUW6 27-324, looked up)
chain: WSQRAMERPFQLLDQYLELSQRFDEQVARNIRQYLGSGDAVRQQAALQALESLAEALPELPPDLARTLAPSLAELREFSAGDLLAAGKLAGDPQGLLLQAERDLTGNLEQWSAYLDAAAGQPQAGAYRTPLLLASLHLTRLSLARAKLVESANPALAGDVERELANLREQAGRIEALPLLGVLDEQRSASDDFAAMMGLAGDAEAGAGNAEDRGVALRRELASLLQRYPDELRRTRDLIERRQQLSADTGARLDAVRQALATLEPQVRGERQRLQGQVRLIQGGMIALILLIALAIDS
notes: Cloned into pET28b(+); Held on a HisTrap column as bait in the pull-down; The discussion gives 286 amino acids for CtpL-LBD, whereas 27-324 is 298 residues; also called PA4844; source: E. coli BL21 (DE3), purified (HisTrap) from the soluble fraction
**Q.** Which results are given for B2?
**A.** stoichiometry N [8]: 1; dH [9]: -3.1 kcal/mol
